Results taken from patent US5346913A, “N-iodopropargyl hydantoin compounds, compositions, preparation, and use as antimicrobial agents” (Rohm and Haas Company, priority 1992, dated 1994).
Values after ≈ are worked out from the molar mass of the structure shown. Where two headings read alike, the source gives them in different places.

Assays:
[1] = system: Puccinia recondita (f. sp. tritici Races PKB and PLD); assay: whole plant or invertebrate; format: in vivo
Staphylococcus aureus = assay: MIC, broth two-fold serial dilution test, Staphylococcus aureus (Saur); format: cell-based
Excerpt: (§1) The compounds identified with a prime (') were the non-iodo analogues of the invention compounds, i.e., the compounds of formula III or IV. All data are reported in ppm of active ingredient required to control the respective organism. The indication "No In." means that the compound had no inhibitory activity at 500 ppm which was the maximum tested, and so if the "No In." compound were active, the minimum inhibitory concentration would be above 500 ppm. The comparative tests were not run side-by-side, but were run on different days using the same methods. […] A minimum inhibitory concentration (MIC) value is obtained using a broth, two-fold serial dilution test performed as follows: […] A volume of the stock solution is dispensed into culture media to give an initial starting test concentration of the compound of 500 ppm or 250 ppm. When the test is ready to be done, each vessel in the dilution series, except the first vessel, contains an equal volume of compound free broth. The first vessel contains twice the volume of broth with the starting concentration of test compound. One half of the broth from the first vessel is transferred to the second vessel. After being mixed, one half the resulting volume is removed from the second vessel and transferred to the third vessel. […] Each vessel is then inoculated with a cell suspension of the appropriate test organism. Bacteria are grown in broth and fungi on agar […] is grown in cooling tower media for a time and at a temperature appropriate to the species being tested. At the end of the growth period, the broth is vortexed to disperse the cells. In the case of fungi, the spores are harvested by pipetting water onto the slant and dislodging the spores with a sterile loop. The cell/spore suspension is standardized by controlling incubation time, temperature, and the volume of the diluent. The suspension is then used to inoculate the vessels containing the broth compound. The vessels are then incubated at the appropriate temperature. After the incubation, the vessels are examined for growth/no growth. The MIC is defined as the lowest concentration of compound that results in complete inhibition of growth of the test organism. BACTERIA: Pseudomonas fluorescens (Ps.fl), gram negative; Pseudomonas aerugenosa (Ps.ae), gram negative; Escherichia coli (E.c), gram negative; and Staphylococcus aureus (S.a), gram positive.

Phytophthora infestans = assay: whole plant or invertebrate; format: in vivo; conditions: for pest or weed control at 50 ppm: read-out: % Control TLB, secondary greenhouse test (Table 5), 50 ppm; for percent disease control TLB: advanced greenhouse test (Table 6), 0.25 kg a.i./ha
[2] = system: Pseudoperonospora cubensis; assay: whole plant or invertebrate; format: in vivo; conditions: for percent disease control CDM: in vivo
Pseudomonas aerugenosa = assay: MIC, broth two-fold serial dilution test, Pseudomonas aerugenosa (Psae); format: cell-based
Excerpt: as §1

TLB, CDM, WLR, SNW, WPM = conditions: in vivo
Aspergillus niger = assay: MIC, broth two-fold serial dilution test, Aspergillus niger (Anig); format: cell-based; conditions: TSB
Excerpt: as §1, with “INDUSTRIAL FUNGI: Aspergillus niger (A.n); Aureobasidium pullulans (A.p)” for “BACTERIA: Pseudomonas fluorescens (Ps.fl), gram negative; Pseudomonas aerugenosa (Ps.ae), gram negative; Escherichia coli (E.c), gram negative; and Staphylococcus aureus (S.a), gram positive.”

Septoria nodorum = conditions: in vivo
[3] = system: Pellicularia filamentosa (f. sp. sasiki); assay: whole plant or invertebrate; format: in vivo; conditions: 120 h; read-out: % Control RSB
Piricularia oryzae [4] = assay: whole plant or invertebrate; format: in vivo; conditions: Pyricularia oryzae, read-out: % Control RB
Escherichia coli = assay: MIC, broth two-fold serial dilution test, Escherichia coli (Ecol); format: cell-based
Excerpt: as §1

[5] = system: Erysiphe graminis (f. sp. tritici); assay: whole plant or invertebrate; format: in vivo; conditions: for percent disease control WPM: in vivo
Xanthomonas campestris = assay: microbe, parasite or virus in culture; format: cell-based; conditions: read-out: % Control XAN
Piricularia oryzae [6] = assay: microbe, parasite or virus in culture; format: cell-based; conditions: read-out: % Control PIR
Rhizoctonia solani = assay: microbe, parasite or virus in culture; format: cell-based; conditions: read-out: % Control RHI
Fusarium roseum = assay: microbe, parasite or virus in culture; conditions: Fusarium sambucinum, read-out: % Control FUS
Excerpt: FUS Fusarium roseum (Ascomycete)
Transfers in steps 1 and 2 are done in a laminar flow hood. All 8 fungi and the bacterium used in this test are transferred and maintained on potato dextrose agar plates each week (2 plates/organism). Organisms are used when they are the following ages: a. […] Culture flasks are inoculated with 6 mycelial plugs each (except for Pythium which is inoculated with only 3 plugs) taken from PDA plates. All liquid shaker cultures are used after 2 days growth.
PYU, PHY, RHI and FUS cultures are ground up (2-3 5 second bursts in a blender) and all but Pythium and Phytophthora are filtered through a double layer of sterile cheesecloth to remove large mycelial clumps. Ten ml of the culture solutions of R. solani and F. roseum are added to 90 ml of YSB and 10 ml of the P. capsici is added to 90 ml ASB. […] The inoculum mixtures are placed in microtiter plates using a 12-tipped pipet. 175 μl (single dose) or 100 μl (dose-response test) of inoculum broth is placed in each well of the microtiter plates. The plates with inoculated media are placed in the refrigerator overnight. There are two replications per treatment.
This operation is carried out in a chemistry hood. Six microtiter plates have 245 microliters of sterile water added to their wells ahead of time. 10 Mg a.i. of the compounds are placed in 1 ml 1:1 acetone:methanol. 5 Microliters of this solution (6 microliters in the case of the 50 ppm dose) is pipetted into the microtiter plates containing the sterile water according to the grid. There are 45 compounds and 3 scattered control treatments per plate. There are 2 replicates per treatment. 25 Microliters of solution is transferred to the inoculated plates with a 96 well replicator. The replicator is flame sterilized with alcohol, rinsed with sterile water, and blotted on sterile paper towels between each transfer.

Cochliobolus sativus = assay: In-vitro plant disease test, HEL; format: cell-based; conditions: Bipolaris sorokiniana, read-out: % Control HEL
Phytophthora capsici = assay: In-vitro plant disease test, PHY; format: cell-based; conditions: read-out: % Control PHY
Pythium ultimum = assay: In-vitro plant disease test, PYU; format: cell-based; conditions: Globisporangium ultimum, read-out: % Control PYU
[7] = Puccinia recondita, 240 h, read-out: % Control WLR
[8] = Phytophthora infestans, in Solanum lycopersicum, 96 h, read-out: % Control TLB, greenhouse test (Table 4), 200 ppm
[9] = Phytophthora infestans, in Solanum lycopersicum, 96 h
[10] = Phytophthora infestans, in Solanum lycopersicum, 96 h, read-out: % Control TLB, secondary greenhouse test (Table 5), 200 ppm
[11] = Pseudoperonospora cubensis, in Cucumis sativus, 168 h, read-out: % Control CDM
[12] = Blumeria graminis, read-out: % Control WPM

| Compound | pest or weed control at 50 ppm [1, 7] [%] | pest or weed control at 200 ppm [1, 7] [%] | percent disease control WLR ([1]; in vivo) [%] | MIC (Staphylococcus aureus; M9G) [µg/mL] | MIC (Staphylococcus aureus; TSB) [µg/mL] | pest or weed control at 200 ppm (Phytophthora infestans; [8]) [%] | pest or weed control at 50 ppm (Phytophthora infestans; [9]) [%] | percent disease control TLB (Phytophthora infestans) [%] | pest or weed control at 200 ppm [2, 11] [%] | percent disease control CDM [2] [%] | MIC (Pseudomonas aerugenosa; M9G) [µg/mL] | MIC (Pseudomonas aerugenosa; TSB) [µg/mL] | percent disease control Average (TLB, CDM, WLR, SNW, WPM) [%] | MIC (Aspergillus niger) [µg/mL] | percent disease control SNW (Septoria nodorum) [%] | pest or weed control at 50 ppm [3] [%] | pest or weed control at 50 ppm (Piricularia oryzae [4]) [%] | MIC (Escherichia coli; M9G) [µg/mL] | MIC (Escherichia coli; TSB) [µg/mL] | pest or weed control at 200 ppm [5, 12] [%] | also measured |
| --- | --- | --- | --- | --- | --- | --- | --- | --- | --- | --- | --- | --- | --- | --- | --- | --- | --- | --- | --- | --- | --- |
| CC1C(=O)N(c2ccc(Cl)cc2)C(=O)N1CC#CI (centres unmarked) [Compound 2, 1-(3-iodo-2-propynyl)-3-(4-chlorophenyl)-5-methylhydantoin] | 80 | 85 | 83.0 | > 500 | > 500 | 0 | 50 | 38.0 | 0 | 98.0 | > 500 | > 500 | 72.4 | 2 (≈ 5.15 µM) | 90.0 | 0 | 50 | > 500 | 500 (≈ 1290 µM) | 75 | % Control WLR ([1]; in vivo): 90%; pest or weed control at 200 ppm (Phytophthora infestans; [10]): 75%; pest or weed control at 200 ppm [3]: 0%; pest or weed control at 200 ppm (Piricularia oryzae [4]): 75%; pest or weed control at 50 ppm [5, 12]: 50%; percent disease control WPM [5]: 53.0% |
| CC1C(=O)N(c2ccc(F)cc2)C(=O)N1CC#CI (centres unmarked) [Compound 3, 1-(3-iodo-2-propynyl)-3-(4-fiuorophenyl)-5-methylhydantoin] | 0 | 95 | 75.0 | > 500 | > 500 | 0 | 0 | 52.0 | 50 | 100.0 | > 500 | > 500 | 67.8 | 4 (≈ 10.7 µM) | 47.0 | 0 | 50 | > 500 | 250 (≈ 672 µM) | 40 | pest or weed control at 200 ppm (Phytophthora infestans; [10]): 95%; pest or weed control at 200 ppm [3]: 0%; pest or weed control at 200 ppm (Piricularia oryzae [4]): 50%; pest or weed control at 50 ppm [5, 12]: 50%; percent disease control WPM [5]: 65.0% |
| O=C1N(c2cc(Cl)cc(Cl)c2)C(=O)C2(CCCC2)N1CC#CI [Compound 4, 1-(3-iodo-2-propynyl)-3-(3,5-dichlorophenyl)-5,5-spirocyclopentane-hydantoin] | 0 | 0 | 80.0 | > 500 | > 500 | 95 | 0 | 30.0 | 50 | 100.0 | > 500 | > 500 | 65.2 | 16 (≈ 34.5 µM) | 53.0 | 50 | 50 | > 500 | > 500 | 25 | pest or weed control at 200 ppm (Phytophthora infestans; [10]): 0%; pest or weed control at 200 ppm [3]: 50%; pest or weed control at 200 ppm (Piricularia oryzae [4]): 50%; pest or weed control at 50 ppm [5, 12]: 0%; percent disease control WPM [5]: 63.0% |
| O=C1N(c2cc(Cl)cc(Cl)c2)C(=O)C2(CCCCC2)N1CC#CI [Compound 5, 1-(3-iodo-2-propynyl)-3-(3,5-dichlorophenyl)-5,5-spirocyclohexane-hydantoin] | 0 | 0 | 80.0 | > 500 | > 500 | 95 | 0 | 28.0 | 40 | 100.0 | > 500 | > 500 | 69.4 | > 500 | 72.0 | 25 | 50 | > 500 | > 500 | 0 | pest or weed control at 50 ppm [5, 12]: 50%; percent disease control WPM [5]: 67.0% |
| CC1(C)C(=O)N(CC#CI)C(=O)N1CC#CI [Compound 11] | – | – | – | 32 (≈ 70.2 µM) | – | – | – | – | – | – | 125 (≈ 274 µM) | – | – | < 4 | – | – | – | 64 (≈ 140 µM) | – | – | inhibition of growth at 25 ppm (Xanthomonas campestris): 0%; inhibition of growth at 50 ppm (Xanthomonas campestris): 0%; pest or weed control at 100 ppm [1, 7]: 50%; pest or weed control at 100 ppm (Phytophthora infestans; Phytophthora infestans, in Solanum lycopersicum, 96 h, read-out: % Control TLB, greenhouse test (Table 4), 100 ppm): 0%; inhibition of growth at 25 ppm (Piricularia oryzae [6]): 100%; inhibition of growth at 50 ppm (Piricularia oryzae [6]): 100%; pest or weed control at 100 ppm [2, 11]: 100%; inhibition of growth at 25 ppm (Rhizoctonia solani): 100%; inhibition of growth at 50 ppm (Rhizoctonia solani): 100%; inhibition of growth at 25 ppm (Fusarium roseum): 0%; inhibition of growth at 50 ppm (Fusarium roseum): 100%; pest or weed control at 100 ppm (Piricularia oryzae [4]): 95%; pest or weed control at 100 ppm [5, 12]: 85%; inhibition of growth at 25 ppm (Cochliobolus sativus): 90% |
| CC1(C)NC(=O)N(CC#CI)C1=O [Compound 12] | – | 25 | – | 125 (≈ 428 µM) | 16 (≈ 54.8 µM) | 0 | – | – | 0 | – | 250 (≈ 856 µM) | > 500 | – | 8 (≈ 27.4 µM) | – | – | – | 125 (≈ 428 µM) | 250 (≈ 856 µM) | 0 | inhibition of growth at 25 ppm (Xanthomonas campestris): 0%; inhibition of growth at 25 ppm (Piricularia oryzae [6]): 90%; inhibition of growth at 25 ppm (Rhizoctonia solani): 100%; inhibition of growth at 25 ppm (Phytophthora capsici): 100%; inhibition of growth at 25 ppm (Fusarium roseum): 75%; inhibition of growth at 25 ppm (Pythium ultimum): 100%; pest or weed control at 200 ppm (Piricularia oryzae [4]): 95% |
